Results on 20 compounds are retold here after US10538498B2, “1,3,4-oxadiazole sulfonamide derivative compounds as histone deacetylase 6 inhibitor, and the pharmaceutical composition comprising the same” (Chong Kun Dang Pharmaceutical Corp., priority 2015, dated 2020).

The target in this assay is T1, human recombinant HDAC6 (Homo sapiens, UniProt Q9UBN7).
T1 construct: purchased Calbiochem 382180
T1 sequence (Q9UBN7 1-1215): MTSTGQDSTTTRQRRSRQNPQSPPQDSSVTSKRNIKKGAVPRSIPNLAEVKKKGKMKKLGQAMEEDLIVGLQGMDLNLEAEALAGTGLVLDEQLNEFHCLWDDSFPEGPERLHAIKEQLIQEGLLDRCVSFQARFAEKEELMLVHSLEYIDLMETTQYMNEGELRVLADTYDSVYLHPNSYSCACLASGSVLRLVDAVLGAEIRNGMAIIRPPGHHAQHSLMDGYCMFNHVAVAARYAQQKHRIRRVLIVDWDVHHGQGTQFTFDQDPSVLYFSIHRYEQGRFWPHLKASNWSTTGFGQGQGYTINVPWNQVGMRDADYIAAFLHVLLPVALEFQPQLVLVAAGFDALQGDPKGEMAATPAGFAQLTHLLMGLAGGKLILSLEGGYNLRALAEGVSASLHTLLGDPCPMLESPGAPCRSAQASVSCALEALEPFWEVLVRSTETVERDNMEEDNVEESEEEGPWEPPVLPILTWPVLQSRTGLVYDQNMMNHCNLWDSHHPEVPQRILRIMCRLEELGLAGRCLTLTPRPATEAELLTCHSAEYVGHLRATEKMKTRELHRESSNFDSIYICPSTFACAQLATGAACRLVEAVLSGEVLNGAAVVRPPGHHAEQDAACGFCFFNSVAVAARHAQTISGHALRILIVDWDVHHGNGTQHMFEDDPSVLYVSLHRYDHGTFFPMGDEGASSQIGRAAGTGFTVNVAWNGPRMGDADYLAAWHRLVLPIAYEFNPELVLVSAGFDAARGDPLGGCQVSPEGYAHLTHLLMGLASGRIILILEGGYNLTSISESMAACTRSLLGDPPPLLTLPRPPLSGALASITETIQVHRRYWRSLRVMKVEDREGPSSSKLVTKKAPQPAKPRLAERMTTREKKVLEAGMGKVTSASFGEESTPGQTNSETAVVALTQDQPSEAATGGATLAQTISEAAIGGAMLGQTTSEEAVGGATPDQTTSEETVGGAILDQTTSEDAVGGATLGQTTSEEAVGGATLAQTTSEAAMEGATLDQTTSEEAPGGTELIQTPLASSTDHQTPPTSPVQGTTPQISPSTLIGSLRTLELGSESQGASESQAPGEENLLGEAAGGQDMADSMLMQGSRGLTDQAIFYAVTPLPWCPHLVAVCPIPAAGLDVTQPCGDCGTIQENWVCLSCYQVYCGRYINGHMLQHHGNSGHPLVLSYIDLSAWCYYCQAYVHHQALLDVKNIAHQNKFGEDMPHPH
Description: HDAC6 enzyme activity inhibition assay (HDAC Fluorimetric Drug Discovery Kit). To be noted: for HDAC6 selectivity (fold): HDAC1 vs HDAC6; for IC50: same protocol as the HDAC1 enzyme activity test. Type of assay: biochemical. As for the experimental part:
In order to examine the HDAC6 selectivity of the compounds of formula I of the present invention by HDAC1 and HDAC6 enzymatic activity inhibition assays, an experiment was performed using a conventional substance as a control.
HDAC enzyme activity was measured using a HDAC Fluorimetric Drug Discovery Kit (BML-AK511, 516, Enzo Life Science). For the HDAC1 enzyme activity test, human recombinant HDAC1 (BML-SE456) was used as an enzyme source, and Fluor de Lys®-“SIRT1 (BNL-KI177) was used as a substrate. A 5-fold dilution of the compound was seeded into a 96-well plate, and then 0.3 μg of the enzyme and 10 μM of the substrate were added to each well of the plate and allowed to react at 30° C. for 60 minutes. Then, Fluor de Lys®-Developer II (BML-KI176) was added thereto and allowed to react for 30 minutes, after which the fluorescence value (Ex 360, Em 460) was measured using a multi-plate reader (Flexstation 3, Molecular Device). The HDAC6 enzyme was tested using human recombinant HDAC6 (382180) (Calbiochem) according to the same protocol as the HDAC1 enzyme activity test method. Based on the resulting values, each IC50 value was calculated using GraphPad Prism4.0 program.

Structures are written as SMILES.

On to `CC(C)N1Cc2ccc(N(Cc3ccc(-c4nnc(C(F)F)o4)cc3)S(C)(=O)=O)cc2C1` [Compound 11730, N-(4-(5-(difluoromethyl)-1,3,4-oxadiazol-2-yl)benzyl)-N-(2-isopropylisoindolin-5-yl)methanesulfonamide], for which the “HDAC6 selectivity (fold)” value is listed as 39 fold and the IC50 is 2.53 µM.
For `Cc1cccc(N(Cc2ccc(-c3nnc(C(F)F)o3)cc2)S(=O)(=O)C2CCN(C3CCC(F)(F)CC3)CC2)c1` [Compound 11694, 1-(4,4-difluorocyclohexyl)-N-(4-(5-(difluoromethyl)-1,3,4-oxadiazol-2-yl)benzyl)-N-(m-tolyl)piperidine-4-sulfonamide], in that order: 215 fold and 0.464 µM.
In the same order, the values of `CS(=O)(=O)N(Cc1ccc(-c2nnc(C(F)(F)F)o2)cn1)c1cccc(C(F)(F)F)c1` [Compound 11323, N-((5-(5-(trifluoromethyl)-1,3,4-oxadiazol-2-yl)pyridin-2-yl)methyl)-N-(3-(trifluoromethyl)phenyl)methanesulfonamide] are 909 fold and 0.11 µM.
For the compound `COCCN1CCN(CCS(=O)(=O)N(Cc2ccc(-c3nnc(C(F)F)o3)cc2)c2ccccc2)CC1` [Compound 11758, N-(4-(5-(difluoromethyl)-1,3,4-oxadiazol-2-yl)benzyl)-2-(4-(2-methoxyethyl)piperazin-1-yl)-N-phenylethane-1-sulfonamide], the “HDAC6 selectivity (fold)” value was 1039 fold and the IC50 came to 0.0962 µM.
Turning to `CS(=O)(=O)N(Cc1ccc(-c2nnc(C(F)(F)F)o2)cc1F)c1cccc(C(F)(F)F)c1` [Compound 11175, N-(2-fluoro-4-(5-(trifluoromethyl)-1,3,4-oxadiazol-2-yl)benzyl)-N-(3-(trifluoromethyl)phenyl)methanesulfonamide], the “HDAC6 selectivity (fold)” value is 559 fold and the IC50 worked out at 0.179 µM.
In the case of `O=S(=O)(CCCN1CCOCC1)N(Cc1ccc(-c2nnc(C(F)F)o2)cn1)c1ccccc1` [Compound 11718, N-((5-(5-(difluoromethyl)-1,3,4-oxadiazol-2-yl)pyridin-2-yl)methyl)-3-morpholino-N-phenylpropane-1-sulfonamide], the “HDAC6 selectivity (fold)” value came out at 1353 fold and the IC50 stood at 0.0739 µM.
As for `CS(=O)(=O)N(Cc1ccc(-c2nnc(C(F)F)o2)cc1F)c1cncc(F)c1` [Compound 11284, N-(4-(5-(difluoromethyl)-1,3,4-oxadiazol-2-yl)-2-fluorobenzyl)-N-(5-fluoropyridin-3-yl)methanesulfonamide], the “HDAC6 selectivity (fold)” value was 3704 fold and the IC50 worked out at 0.027 µM.
In the same order, the values of `CCS(=O)(=O)N(Cc1ccc(-c2nnc(C(F)(F)F)o2)cc1F)c1cccc(CN2CCN(C(C)=O)CC2)c1` [Compound 11406, N-(3-((4-acetylpiperazin-1-yl)methyl)phenyl)-N-(2-fluoro-4-(5-(trifluoromethyl)-1,3,4-oxadiazol-2-yl)benzyl)ethanesulfonamide] are 435 fold and 0.23 µM.
On to `CS(=O)(=O)N(Cc1ccc(-c2nnc(C(F)F)o2)cc1F)c1ccccc1F` [Compound 11274], for which the “HDAC6 selectivity (fold)” value is recorded as 2439 fold and the half-inhibitory concentration (IC50) was 0.041 µM.
As to `CCn1ncc2ccc(N(Cc3ccc(-c4nnc(C(F)F)o4)cc3)S(C)(=O)=O)cc21` [Compound 11743, N-(4-(5-(difluoromethyl)-1,3,4-oxadiazol-2-yl)benzyl)-N-(1-ethyl-1H-indazol-6-yl)methanesulfonamide], the “HDAC6 selectivity (fold)” value amounted to 1466 fold and the half-inhibitory concentration (IC50) was 0.0682 µM.
On to `CC(C)c1nc2ccc(N(Cc3ccc(-c4nnc(C(F)F)o4)cc3)S(C)(=O)=O)cc2s1` [Compound 11744, N-(4-(5-(difluoromethyl)-1,3,4-oxadiazol-2-yl)benzyl)-N-(2-isopropylbenzo[d]thiazol-6-yl)methanesulfonamide], for which the “HDAC6 selectivity (fold)” value is reported as 188 fold and the 50% inhibitory concentration (IC50) was 0.531 µM.
`Cc1cccc(N(Cc2ccc(-c3nnc(C(F)F)o3)cn2)S(=O)(=O)C2CCN(C3COC3)CC2)c1` [Compound 11684, N-((5-(5-(difluoromethyl)-1,3,4-oxadiazol-2-yl)pyridin-2-yl)methyl)-1-(oxetan-3-yl)-N-(m-tolyl)piperidine-4-sulfonamide]: the “HDAC6 selectivity (fold)” value was found to be 6250 fold and the IC50 came to 0.016 µM.
Consider `CS(=O)(=O)N(Cc1ccc(-c2nnc(C(F)F)o2)cc1)c1ccc(Cl)cn1` [Compound 11348], for which the “HDAC6 selectivity (fold)” value is 758 fold and the IC50 came out at 0.132 µM.
Consider `CS(=O)(=O)N1CC(N2CCC(S(=O)(=O)N(Cc3ccc(-c4nnc(C(F)F)o4)cc3F)c3ccc(F)c(Cl)c3)CC2)C1` [Compound 11448, N-(3-chloro-4-fluorophenyl)-N-(4-(5-(difluoromethyl)-1,3,4-oxadiazol-2-yl)-2-fluorobenzyl)-1-(1-(methylsulfonyl)azetidin-3-yl)piperidine-4-sulfonamide], for which the “HDAC6 selectivity (fold)” value amounted to 4762 fold and the half-maximal inhibitory concentration (IC50) was 0.021 µM.
In the same order, the values of `CCN1CC(N2CCC(S(=O)(=O)N(Cc3ccc(-c4nnc(C(F)F)o4)cc3)c3cccc(Cl)c3)CC2)C1` [Compound 11777, N-(3-chlorophenyl)-N-(4-(5-(difluoromethyl)-1,3,4-oxadiazol-2-yl)benzyl)-1-(1-ethylazetidin-3-yl)piperidine-4-sulfonamide] are 3472 fold and 0.0288 µM.
In the same order, the values of `CC(C)(O)CN1CCC(S(=O)(=O)N(Cc2ccc(-c3nnc(C(F)F)o3)cc2F)c2ccccc2)CC1` [Compound 11377, N-(4-(5-(difluoromethyl)-1,3,4-oxadiazol-2-yl)-2-fluorobenzyl)-1-(2-hydroxy-2-methylpropyl)-N-phenylpiperidine-4-sulfonamide] are 4545 fold and 0.022 µM.
For `O=S(=O)(CCN1CCN(c2ccc(F)cc2)CC1)N(Cc1ccc(-c2nnc(C(F)F)o2)cc1)c1ccccc1` [Compound 11769, N-(4-(5-(difluoromethyl)-1,3,4-oxadiazol-2-yl)benzyl)-2-(4-(4-fluorophenyl)piperazin-1-yl)-N-phenylethane-1-sulfonamide], in that order: 359 fold and 0.278 µM.
`Cc1ccccc1N(Cc1ccc(-c2nnc(C(F)F)o2)cc1F)S(C)(=O)=O` [Compound 11249, N-(4-(5-(difluoromethyl)-1,3,4-oxadiazol-2-yl)-2-fluorobenzyl)-N-(o-tolyl)methanesulfonamide]: the “HDAC6 selectivity (fold)” value was 2703 fold and the IC50 came to 0.037 µM.
`CS(=O)(=O)NCc1ccc(-c2nnc(C(F)(F)F)o2)cc1` [Compound 11121, N-(4-(5-(trifluoromethyl)-1,3,4-oxadiazol-2-yl)benzyl)methanesulfonamide]: the “HDAC6 selectivity (fold)” value is recorded as 39 fold and the IC50 amounted to 2.54 µM.
In the same order, the values of `CCS(=O)(=O)N(Cc1ccc(-c2nnc(C(F)F)o2)cc1F)c1cccc(CN2CCN(S(C)(=O)=O)CC2)c1` [Compound 11404, N-(4-(5-(difluoromethyl)-1,3,4-oxadiazol-2-yl)-2-fluorobenzyl)-N-(3-((4-(methylsulfonyl)piperazin-1-yl)methyl)phenyl)ethanesulfonamide] are 952 fold and 0.105 µM.
